Assay results from US7183092B2, “Modified luciferase” (priority 2003, dated 2007).
Entries after “also recorded” stand apart in the source; their conditions may differ.

B1: CNBLuc03-02: modified Photinus pyralis luciferase: serine replaced by threonine at amino acid 239 and alanine replaced by threonine at amino acid 532 (protein, listed as Photinus pyralis)
chain: MEDAKNIKKGPAPFYPLEDGTAGEQLHKAMKRYALVPGTIAFTDAHIEVNITYAEYFEMSVRLAEAMKRYGLNTNHRIVVCSENSLQFFMPVLGALFIGVAVAPANDIYNERELLNSMNISQPTVVFVSKKGLQKILNVQKKLPIIQKIIIMDSKTDYQGFQSMYTFVTSHLPPGFNEYDFVPESFDRDKTIALIMNSSGSTGLPKGVALPHRTACVRFSHARDPIFGNQIIPDTAILTVVPFHHGFGMFTTLGYLICGFAVVLMYRFEEELFLRSLQDYKIQSALLVPTLFSFFAKSTLIDKYDLSNLHEIASGGAPLSKEVGEAVAKRFHLPGIRQGYGLTETTSAILITPEGDDKPGAVGKVVPFFEAKVVDLDTGKTLGVNQRGELCVRGPMIMSGYVNNPEATNALIDKDGWLHSGDIAYWDEDEHFFIVDRLKSLIKYKGYQVAPAELESILLQHPNIFDAGVAGLPDDDAGELPAAVVVLEHGKTMTEKEIVDYVASQVTTAKKFRGGVVFVDEVPKGLTGKLDTRKIREILIKAKKGGKSKL

Tests used:
Format in all cases: biochemical, Photinus pyralis
[1] = Stability of CNBLuc03-02 luciferase activity in the presence of HPV solvents; details: FIG. 2, 33 mM DTT, 10% ethanol; for inhibition of luciferase activity by toluene: 0.5% toluene
Method: (§1) The stability of CNBLuc03-02 luciferase (SEQ ID NO: 2) in the presence of a range of potential inhibitors was assayed. The basic assay contained 40 mM Tris-Acetate at pH 7.8, 1 mM MgSO4, 0.1 mM EDTA (ethylenediaminetetraacetic acid), 500 μM D-Luciferin and 500 μM ATP. Ethanol, DTT (dithiothreitol) and potential inhibitors were included at the concentrations stated.
Toluene inhibited CNBLuc03-02 luciferase (SEQ ID NO: 2) activity by approximately 40% and wild type luciferase activity by approximately 80%.

[2] = Luciferase activity in the presence of nonionic detergent Triton X-100; details: FIG. 4; Triton X-100 up to 5%, 20 ng purified luciferase, 0% ethanol, 33 mM DTT
Method: as §1, with “CNBLuc03-06” for “CNBLuc03-02”, “4), both in purified form and in cell lysates,” for “2)”
(§2) The stability of CNBLuc03-06 luciferase (SEQ ID NO: 4) in the presence of Triton X-100 and SDS was determined using 20 ng of purified luciferase per sample using the basic assay conditions and in the presence of 0% ethanol and 33 mM DTT. The effect of detergents on wild type luciferase was determined previously by W. J. Simpson and J. R. M. Hammond (W. J. Simpson and J. R. M. Hammond, (1991) Journal of Bioluminescence & Chemiluminescence, 6. 97–106, incorporated herein by reference). They reported the anionic detergents inhibit luciferase activity, and cationic detergents and nonionic detergents increase the reaction rate when the concentration of detergent exceeds critical micelle concentration (CMC) value but only up to certain concentrations.

[3] = Stability of CNBLuc03-06 luciferase activity in the presence of HPV chemicals; details: FIG. 3, 1 mM DTT, 2.5% ethanol
Method: as §1, with “CNBLuc03-06” for “CNBLuc03-02”, “4), both in purified form and in cell lysates,” for “2)”
This effect was confirmed by repeated experiments. With 20 ng purified CNBLuc03-06 luciferase (SEQ ID NO: 4) and in the presence of 2.5% ethanol, 1 mM DTT and 86 mM chloroform an activation of approximately 50% was measured, compared with the absence of chloroform.
The capacity of a variety HPV chemicals to inhibit or activate both wild type luciferase and CNBLuc03-06 luciferase (SEQ ID NO: 4) activity compared to controls without HPV chemicals was tested. Higher concentrations of chloroform (172 mM), methylene chloride (318 mM) or toluene (2.7 mM) were used. The basic assay contained 20ng of purified CNBLuc03-06, 1 mM DTT and 2.5% ethanol. CNBLuc03-06 luciferase (SEQ ID NO: 4) was exposed to each chemical for less than 5 minutes before measuring the light output.

[4] = Specific activity of luciferase in the absence of DTT; details: 0 mM DTT, pH 7.8, 1 mM ATP, 500 μM D-Luciferin, three replicates
Method: Dithiothreitol (DTT) is an enzyme stabilizing agent used to reduce disulfide bonds (break the bonds) that are not normally formed under physiological conditions. Both purified wild type luciferase and CNBLuc03-06 luciferase (SEQ ID NO: 4) were diluted to 2 μg/ml in 40 mM Tris Acetate buffer at pH 7.8. The assay contained 40 mM Tris-Acetate at pH 7.8, 1 mM MgSO4, 0.1 mM EDTA, 500 μM D-Luciferin, 1 mM ATP, and 0 mM DTT. The light output was measured over time and three replicate measurements were made for each luciferase. The average value of the highest light output reading obtained over time was used to determine specific activity of each enzyme.

[5] = Luciferase activity at different pHs; details: up to pH 11
Method: 20 ng of enzyme was used for each reaction. The pH was maintained at 7.8 by 40 mM Tris-acetate buffer and 33 mM DTT was added to each reaction. Both substrates, MGATP and D-Luciferin were saturated at 1 mM and 500 μM respectively. The values were normalized against the highest RLU (relative light units) at each pH optimum for comparison purpose. CNBLuc03-06 luciferase (SEQ ID NO: 4) has optimum pH of 9, but the high enough activity is retained at lower pHs in which enables us to use this mutant luciferase in case a wide range of pH is required for the assay (between 8–11).

[6] = Luciferase activity in the presence of anionic detergent SDS; details: FIG. 5; 20 ng purified luciferase, 0% ethanol, 33 mM DTT
Method: as §1, with “CNBLuc03-06” for “CNBLuc03-02”, “4), both in purified form and in cell lysates,” for “2)”
as §2
SDS was used for testing the effect of anionic detergents.

[7] = Stability of CNBLuc03-02 luciferase activity in the presence of chloroform; details: 5% ethanol, 33 mM DTT, 10 μl cell lysates; for inhibition of luciferase activity by 0.8% CHCl3: 0.8% chloroform; for original activity maintained: FIG. 1, different concentrations of chloroform
Method: as §1

[8] = Quantitative in vitro screening of mutant luciferases with chloroform; details: cell lysate supernatant
Method: Selected colonies from secondary screening were inoculated and grown in 5 ml LB broth containing 100 μg/ml ampicillin at 30° C. overnight. When the OD660 reached approximately 1, bacterial cells were harvested from 1.5 ml of culture by centrifugation for 3 min at 12,000 rpm (Eppendorf centrifuge model 5415D). Harvested cells were resuspended in 1 ml of 40 mM Tris-Acetate buffer, pH 7.8, and sonicated for 10 seconds using a Branson Sonifer 450, Duty cycle-40 and output control-4. The activity of each luciferase sample, prepared using 10 μl of supernatant from a subsequent centrifugation of sonicated bacterial cell culture, was tested in 200 μl total reaction volume by a Luminometer (Perkin Elmer, model Victor II). Each assay contained 40 mM Tris-Acetate, 1 mM MgSO4, 0.1 mM EDTA (ethylenediaminetetraacetic acid), 33 mM DTT (dithiothreitol), 500 μM D-Luciferin, 10% Ethanol and 500 μM ATP at pH 7.8. Some screening assays also contained 68.8 mM chloroform (0.8% vol.).
Different mutant luciferases were compared quantitatively by determining the percentage (%) inhibition of luciferase activity in the presence of chloroform relative to a control without chloroform. The specific activities of chloroform-tolerant mutants were generally lower as compared to wild type. […] The nucleotide sequence of CNBLuc03-02 is SEQ ID No: 1. The polypeptide sequence of the product of SEQ ID No: 1 is SEQ ID No: 2.

Row | Molecule | inhibition of luciferase activity by toluene ([1]; 10 μl cell lysate) | effect of Triton X-100 on luciferase activity [2] | inhibition compared to controls, chloroform ([3]; chloroform 172 mM, exposure less than 5 minutes) | inhibition compared to controls, methylene chloride ([3]; methylene chloride 318 mM) | inhibition compared to controls, toluene ([3]; toluene 2.7 mM) | specific activity (highest light output) [4] | activity at elevated pH [5] | effect of SDS on luciferase activity [6] | inhibition of luciferase activity by 0.8% CHCl3 [7] | original activity maintained [7] | specific activity compared to wild type ([8]; screening assay) | inhibition of luciferase activity in the presence of chloroform relative to a control without chloroform ([8]; screening, 68.8 mM chloroform (0.8% vol.), 10% ethanol, 33 mM DTT) | inhibition of luciferase activity by HPV solvents other than toluene ([1]; 0.5% of CH2Cl2, hexane, xylene or heptane, 10 μl cell lysate) [%] | inhibition by HPV solvents compared with wild type ([1]; 0.5% of each solvent (CH2Cl2, toluene, hexane, xylene, heptane))
1 | wild type luciferase: amino acid sequence of luciferase of the species Photinus pyralis (SEQ ID NO: 6) [reference compound] | approximately 80% | activated by the nonionic detergent, Triton X-100, up to final concentration of 1.25%; also recorded: increased until 1.25% then it started decreasing | about 70% | about 70% | about 20% | 2.9±1.6×10^9 RLU/mg enzyme/sec | completely inhibit | inhibited luciferase activity significantly | over 80% | about 20% |  |  |  | 
2 | B1 | approximately 40% |  |  |  |  |  |  |  | ~30% | 80% | comparable activity | inhibited much less by chloroform | ≤ 15 | not inhibited as much as wild-type luciferase
